Test [1] relates to HeLa. Briefly: Cytotoxicity against Homo sapiens (human) HeLa cells after 48 hr by MTT assay. It counts as functional, cell-based. In general terms: Tetrazolium dyes change colour on reduction, which living cells bring about.
Test [2] is described as follows: Inhibition of TNFalpha-induced NF-kappaB activity (unknown origin) expressed in HeLa cells cotreated with compound and 10 ng/ml TNF-alpha for 24 hr by reporter gene assay. It counts as cell-based, Homo sapiens.
Setting [3] is: Homo sapiens, HeLa, 24 h, read-out: IC50.

In general, IC50 refers to the concentration that gives 50% inhibition. For the compound `CC(C)[C@@H](C)/C=C/[C@@H](C)[C@H]1CC[C@H]2C3=CC=C4C[C@@H](O)CC[C@]4(C)[C@H]3CC[C@]12C` [ERGOSTEROL], in test [1], the Activity entry is “Dose-dependent effect”. Further, the half-maximal inhibitory concentration (IC50) in test [2] (setting [3]) worked out at 0.91 µg/mL.

Consider `CC1=C(O)C(=O)C=C2C1=CC=C1[C@@]2(C)CC[C@@]2(C)[C@@H]3C[C@](C)(C(=O)O)CC[C@]3(C)CC[C@]12C` [CELASTROL], for which, in test [1], the Activity entry was “Dose-dependent effect”. Moreover, in test [2] (setting [3]), the IC50 was 0.72 µg/mL.

`CC[C@H](CC[C@@H](C)[C@H]1CC[C@H]2[C@@H]3CC=C4C[C@@H](O)CC[C@]4(C)[C@H]3CC[C@]12C)C(C)C` [BETA-SITOSTEROL]: the Activity entry in test [1] is “Dose-dependent effect”. Also, in test [2] (hela), the 50% inhibitory concentration (IC50) result is reported as “Not Active”.

As for `CC[C@H](/C=C/[C@@H](C)[C@H]1CC[C@H]2[C@@H]3CC=C4C[C@@H](O)CC[C@]4(C)[C@H]3CC[C@]12C)C(C)C` [STIGMASTEROL], the Activity result in test [1] is “Dose-dependent effect”. Moreover, the IC50 entry in test [2] (hela) is listed as “Not Active”.

The values above are taken from ChEMBL document CHEMBL3044815, “Inhibitory effects on nuclear factor B of the Vietnamese freshwater cyanobacteria” (Med Chem Res, 2011).
